Results taken from patent US6936630B2, “Substituted 1-aryl-3-heteroaryl-thioureas and substituted 1-aryl-3-heteroaryl-isothioureas as antiatherosclerotic agents” (Wyeth, priority 1997, dated 2005).

Key:
serum HDL cholesterol = test: in vivo test procedure measuring elevation of HDL cholesterol levels in cholesterol/cholic acid-fed rats; set-up: species or system Male Sprague-Dawley rats; settings: rats fed diet with 0.25% cholic acid and 1.0% cholesterol, 100 mg/kg/day in diet for 8 days, serum HDL cholesterol by FPLC; for change in vivo at 100 mg/kg/day: Rattus norvegicus, feed or water, 192 h, read-out: HDL Cholesterol Level Increase (%)
Description: Representative compounds according to the present invention were evaluated in an in vivo standard pharmacological test procedure which measured the ability of the compounds to elevate HDL cholesterol levels. The following describes the procedure used and results obtained. Male Sprague-Dawley rats weighing 200-225 g were housed two per cage and fed Purina Rodent Chow Special Mix 5001-S supplemented with 0.25% cholic acid and 1.0% cholesterol and water ad libitum for 8 days. Each test substance was administered to a group of six rats fed the same diet with the test diet mixed in as 0.005-0.1% of the total diet. Body weight and food consumption were recorded prior to diet administration and at termination. The test substances were administered at a dosage of 100 mg/kg/day.
At termination, blood was collected from anesthetized rats and the serum was separated by centrifugation. Total serum cholesterol was assayed using the Sigma Diagnostics enzymatic kit for the determination of cholesterol, Procedure No. 352, modified for use with ninety-six well microtiter plates. After reconstitution with water the reagent contains 300 U/l cholesterol oxidase, 100 U/l cholesterol esterase, 1000 U/l horse radish peroxidase, 0.3 mmoles/l 4-aminoantipyrine and 30.0 mmoles/l p-hydroxybenzene sulfonate in a pH 6.5 buffer. In the reaction, cholesterol was oxidized to produce hydrogen peroxide which was used to form a quinoneimine dye. The concentration of dye formed was measured spectrophotometrically by absorbance at 490 nm after incubation at 25° C. for 30 minutes. The concentration of cholesterol was determined for each serum sample relative to a commercial standard from Sigma.
HDL cholesterol concentrations in serum were determined by separation of lipoprotein classes by fast protein liquid chromatography (FPLC) by a modification of the method of Kieft et al., J. Lipid Res., 32 (1991), 859-866. Using this methodology, […] of serum was injected onto Superose 12 and Superose 6 (available from Pharmacia), in series, with a column buffer of 0.05 M Tris (2-amino-2-hydroxymethyl-1,3-propanediol) and 0.15 M sodium chloride at a flow rate of 0.5 mL/min. The eluted sample was mixed on line with Boehringer-Mannheim cholesterol reagent pumped at 0.2 mL/min. The combined eluents were mixed and incubated on line through a knitted coil (available from Applied Biosciences) maintained at a temperature of 45° C. The eluent was monitored by measuring absorbance at 490 nm and gave a continous absorbance signal proportional to the cholesterol concentration. The relative concentration for each lipoprotein class was calculated as the percent of total absorbance. HDL cholesterol concentration in serum, was calculated as the percent of total cholesterol as determined by FPLC multiplied by the total serum cholesterol concentration.
Test compounds were administered at a dose of 100 mg/kg for 8 days.

Structure (SMILES)	melting point	change in vivo at 100 mg/kg/day (serum HDL cholesterol)	HDL Cholesterol Level Increase (%) (serum HDL cholesterol)
Cc1ccc(Cl)cc1NC(=S)Nc1nccs1 [Example 1, 1-(5-Chloro-2-methyl-phenyl)-3-(thiazol-2-yl)-thiourea]	197 to 198 °C	65%	–
Cc1ccc(Cl)cc1NC(=S)Nc1nc2ccccc2s1 [Example 2, 1-(Benzothiazol-2-yl)-3-(5-chloro-2-methyl-phenyl)-thiourea]	–	6%	–
Cc1ccc(Cl)cc1NC(=S)Nc1nc2ccc3ccccc3c2s1 [Example 3, 1-(5-Chloro-2-methyl-phenyl)-3-(naphtho[2,1-d]thiazol-2-yl)-thiourea]	–	0.3%	–
Cc1coc(NC(=S)Nc2cc(Cl)ccc2C)n1 [Example 4, 1-(5-Chloro-2-methyl-phenyl)-3-(4-methyl-oxazol-2-yl)-thiourea]	207 to 208 °C	158%	–
Cc1nnc(NC(=S)Nc2cc(Cl)ccc2C)s1 [Example 5, 1-(5-Chloro-2-methyl-phenyl)-3-(5-methyl-[1,3,4]thiadiazol-2-yl)-thiourea]	–	69%	–
Cc1ccc(Cl)cc1NC(=S)Nc1ccn(C)n1 [Example 6, 1-(5-Chloro-2-methyl-phenyl)-3-(1-methyl-1H-pyrazol-3-yl)-thiourea]	217 to 218 °C	-11%	–
Cc1ccc(Cl)cc1NC(=S)Nc1cc[nH]n1 [Example 7, 1-(5-Chloro-2-methyl-phenyl)-3-(1H-pyrazol-3-yl)-thiourea]	221 to 222 °C	97%	–
Cc1ccc(Cl)cc1NC(=S)Nc1c(C)nn(C)c1C [Example 8, 1-(5-Chloro-2-methyl-phenyl)-3-(1,3,5-trimethyl-1H-pyrazol-4-yl)-thiourea]	176 to 177 °C	110%	–
Cc1csc(NC(=S)Nc2cc(Cl)ccc2C)n1 [Example 9, 1-(5-Chloro-2-methyl-phenyl)-3-(4-methyl-thiazol-2-yl)-thiourea]	188 °C	79%	–
Cc1ccc(Cl)cc1NC(=S)Nc1nc(C)c(C)s1 [Example 10, 1-(5-Chloro-2-methyl-phenyl)-3-(4,5-dimethyl-thiazol-2-yl)-thiourea]	188 to 189 °C	41%	–
CCc1nnc(NC(=S)Nc2cc(Cl)ccc2C)s1 [Example 14, 1-(5-Chloro-2-methyl-phenyl)-3-(5-ethyl-[1,3,4]thiadiazol-2-yl)-thiourea]	–	90%	–
Cc1cc(Cl)ccc1NC(=S)Nc1c(C)nn(C)c1C [Example 16, 1-(4-Chloro-2-methyl-phenyl)-3-(1,3,5-trimethyl-1H-pyrazol-4-yl)-thiourea 0.12 solvate with acetic acid ethyl ester]	–	–	104%
CCN(C(=Nc1cc(Cl)ccc1C)SC)c1c(C)nn(C)c1C.Cl [Example 21, 3-(5-Chloro-2-methyl-phenyl)-1-ethyl-2-methyl-1-(1,3,5-trimethyl-1H-pyrazol-4-yl)-isothiourea 1:1 salt with hydrochloric acid]	–	–	29%

Now from value to molecule, other results behind:

melting point	Structure (SMILES)	change in vivo at 100 mg/kg/day (serum HDL cholesterol)	HDL Cholesterol Level Increase (%) (serum HDL cholesterol)
177 to 179 °C	CCOC(=O)Cc1csc(NC(=S)Nc2cc(Cl)ccc2C)n1 [Example 11, {2-[3-(5-Chloro-2-methyl-phenyl)-thioureido]-thiazol-4-yl}-acetic acid ethyl ester]	2%	–
187 to 188 °C (dec.)	Cc1cc(NC(=S)Nc2cc(Cl)ccc2C)sn1 [Example 12, 1-(5-Chloro-2-methyl-phenyl)-3-(3-methyl-isothiazol-5-yl)-thiourea]	134%	–
173 to 174 °C	Cc1nc2cc(NC(=S)Nc3cc(Cl)ccc3C)ccc2s1 [Example 13, 1-(5-Chloro-2-methyl-phenyl)-3-(2-methyl-benzothiazol-5-yl)-thiourea]	36%	–
201 to 202 °C	Cc1cccc(Cl)c1NC(=S)Nc1c(C)nn(C)c1C [Example 15, 1-(2-Chloro-6-methyl-phenyl)-3-(1,3,5-trimethyl-1H-pyrazol-4-yl)-thiourea]	58%	–
214 °C (dec.)	Cc1coc(NC(=S)Nc2ccc(Cl)cc2C)n1 [Example 17, 1-(4-Chloro-2-methyl-phenyl)-3-(4-methyl-oxazol-2-yl)-thiourea]	134%	–
222 °C (dec.)	Cc1coc(NC(=S)Nc2c(C)cccc2Cl)n1 [Example 18, 1-(2-Chloro-6-methyl-phenyl)-3-(4-methyl-oxazol-2-yl)-thiourea]	193%	–
144 to 145 °C	CCN(C(=S)Nc1cc(Cl)ccc1C)c1c(C)nn(C)c1C [Example 19, 3-(5-Chloro-2-methyl-phenyl)-1-ethyl-1-(1,3,5-trimethyl-1H-pyrazol-4-yl)-thiourea]	79%	–
134 to 135 °C	CS/C(=N/c1c(C)nn(C)c1C)Nc1cc(Cl)ccc1C [Example 20, (E)-1-(5-Chloro-2-methyl-phenyl)-2-methyl-3-(1,3,5-trimethyl-1H-pyrazol-4-yl)-isothiourea]	35%	–
